# Literature values as cited in patent US20110082545A1, “DRUG ELUTING BREAST IMPLANT COVER OR COATING” (LIPOSE CORPORATION, priority 2009, published 2011).
# Tested on: capsular contracture
# Conditions: administered orally
smiles,measurement,value
COc1cc(C(=O)NS(=O)(=O)c2ccccc2C)ccc1Cc1cn(C)c2ccc(NC(=O)OC3CCCC3)cc12 [zafirlukast],ability to moderate the capsular contracture,demonstrated the ability to moderate the capsular contracture
